Patent US20120088667A1, “SAFENING AGENT” (priority 2009, published 2012)

Legend:
Winter wheat cv Alchemy = test: Safening of herbicides from addition of auxin/auxin precursor and acetaminophen, winter wheat; conditions: auxins/precursors 10^-2 Molar, AC 3 g per hectare, 0-9 scale, 0=dead plant
Soybean = test: Root nodulation and safening, soybean, compost of low pH (Example 7.1)
From the text: (§1) The safener/safening system and the fertiliser were applied to the crops either simultaneously or sequentially.
(§2) Co=100% Cobalt Sulphate (20 g per litre and per hectare). FF1=20 g per litre Cobalt Sulphate (as per Co above) plus “Miracle-Gro” at xl recommended rate (applied at 15 g per 2.5 sq metres). Miracle-Gro contains: 24% N, 4% P, 13% K, plus 0.02% B, 0.03% Cu, 0.19% Fe, 0.05% Mn, 0.001% Mo and 0.03% Zn. FF2=20 g per litre Cobalt Sulphate plus Miracle-Gro at ×2 recommended rate. SAF: at least one from class (f) each at <3 g/l, plus at least one from class (c).
Scored/Counted+28 Days After Spraying. Sown in Compost of low pH (5.0-5.5) on 1 May 2008. Spray Date (VC)=4 June, V1 Date=20 June. Scored/Measured on 17 July. […] Seed density approx 110 kg/ha. Soybean treated with standard inoculant at sowing.

Glycine max (Soybean) = test: Root nodulation and safening, soybean, compost of normal pH (Example 7.2); conditions: compost of normal pH (6.5)
From the text: as §1, §2
Dates as per Example 7.1 above, but sown in compost of normal pH (6.5). Each treatment represents the mean values for 12 plants, within four replicates. Sowing density 110 kg/ha. Standard inoculant applied at sowing.

NAVY BEAN cv Mogex [1] = test: Root nodulation and safening, navy bean, compost of low pH (Example 7.3); conditions: compost of low pH (5.0-5.5)
From the text: as §1, §2
NAVY BEAN cv Mogex. Scored/Counted+28 Days after Spraying. Sown in Compost of low pH (5.0-5.5) on 29 Apr. 2008. Spray Date (VC)=27 May, V1 Date=16 June. Scored/Measured on 11 July. Each treatment represents the mean value of 12 plants, within four replicates. No inoculum applied.

NAVY BEAN cv Mogex [2] = test: Root nodulation and safening, navy bean, compost of normal pH (Example 7.4); conditions: compost of normal pH (6.5)
From the text: as §1, §2
NAVY BEAN cv Mogex. Scored/Counted+28 Days after Spraying. Dates as per Example 7.3 Above, but sown in compost of normal pH (6.5). Each treatment represents the mean value from 12 plants, within four replicates. No inoculum applied.

PEA cv Ragtime [3] = test: Root nodulation, rooting and safening, pea, compost of low pH (Examples 7.5 and 7.7)
From the text: as §1, §2
PEA—TRIAL 5—cv Ragtime. Scored/Counted+28 Days after Spraying. Sown in Compost of Low pH (5.0-5.5) on 28 Apr. 2008. Spray Date (VC)=26 May, V1 Date=14 June. Scored/Measured on 9 July. […] No inoculum applied.
Sowing details etc as per Example 7.5.

PEA cv Ragtime [4] = test: Root nodulation and safening, pea, compost of normal pH (Example 7.6); conditions: compost of normal pH (6.5)
From the text: as §1, §2
PEA—TRIAL 7.6—cv Ragtime. Dates as per Example 7.5 above, but sown in compost of normal pH (6.5). […] No inoculum was applied.

oilseed rape = test: Safening oilseed rape using a variety of safening compounds of classes (a) to (f) with herbicides; assay type: in vivo; conditions: herbicide Bifenox (with insecticide cypermethrin)
From the text: Safening compounds were selected from the list of compounds below. The compounds used are highlighted in bold. • (a) Glucose (GL), hydrolysed starch, sucrose (S), fructose (FR), glycerol (G), glyceraldehydes, erythrose, ribulose, xylulose or arabinose or an ester or glycoside or metabolic equivalent of such a carbohydrate; • (b) an organic acid of the Krebs Tricarboxylic Acid Cycle or a metabolic precursor thereof (including citric (C), succinic (SU), malic, pyruvic, acetic and fumaric acids); • (c) a vitamin or coenzyme, eg thiamine (T), riboflavin (R), pyridoxine (P), pyridoxamine, pyridoxal, nicotinamide (N), folic acid (F), ascorbic acid (AA), Biotin (B) and vitamin B12 (B12) or a precursor thereof including nicotinic acid • (d) a purine or pyrimidine nucleoside, nucleotide or a metabolic precursor thereof, eg adenine, adenosine, thymine, thymidine, cytosine, guanine, guanosine, hypoxanthine, uracil, uridine or inosine, to act as structural precursors for nucleic acid synthesis. • (e) a naturally occurring fat or oil including olive, soya, coconut and corn (Oil) oils; • (f) an amino acid of a type that occurs naturally in plant proteins, eg glycine (GLY), alanine (AL), valine, leucine (LE), isoleucine, serine, threonine (THR), cysteine (CY), methionine (ME), aspartic acid, glutamic acid, glutamine (GLU), asparagine (AS), lysine (LY), hydroxylysine, arginine, histidine, phenylalanine, tyrosine, tryptophan, proline, or hydroxyproline. Statistical Layout: Randomised Complete Block trial, under glasshouse conditions, United Kingdom.

[5] = Soybean, compost of low pH (5.0-5.5), V1, score 0-9
[6] = V1, +28 days after spraying, no inoculum
[7] = compost of low pH (5.0-5.5), V1, score 0-9
[8] = low pH compost, application at V1, 0-9 scale

## Nc1ccccc1C(=O)O [Anthranilic acid (AN)]
Winter wheat cv Alchemy; 14 days after spraying
  Phytotoxicity (0-9) (0 = Dead) + 14 Days: 8.0
Winter wheat cv Alchemy; 28 days after spraying
  Phytotoxicity (0-9) (0 = Dead) + 28 Days: 8.0

## O=S(=O)([O-])[O-].[Co+2] [cobalt, Cobalt Sulphate]
Soybean; Soybean, compost of low pH (5.0-5.5), V1, +28 days after spraying, mean of 12 plants
  Nodules Per Plant (V1): 27.3
Soybean; [5]
  Nodulation Score (0-9) (V1): 5.2
  Phyto-Toxicity Score (0-9) (V1): 7.8
  Vigour Score (0-9) (V1): 6.0
Soybean; Soybean, compost of low pH (5.0-5.5), VC, +28 days after spraying
  Nodules Per Plant (VC): 28.8
Soybean; Soybean, compost of low pH (5.0-5.5), VC, score 0-9
  Nod Score (0-9) (VC): 5.4
Soybean; nitrogen fixing crops
  nodulation: increases nodulation
Glycine max (Soybean); V1, mean of 12 plants
  Nodules Per Plant (V1): 29.8
Glycine max (Soybean); V1, score 0-9
  Nodulation Score (0-9) (V1): 5.5
  Phyto-Toxicity Score (0-9) (V1): 8.0
  Vigour Score (0-9) (V1): 6.5
Glycine max (Soybean); VC
  Nodules Per Plant (VC): 28.0
Glycine max (Soybean); VC, score 0-9
  Nod Score (0-9) (VC): 5.3
NAVY BEAN cv Mogex [1]; [6]
  Nodules Per Plant (V1): 21.0
NAVY BEAN cv Mogex [1]; V1, score 0-9
  Nodulation Score (0-9) (V1): 3.3
  Phyto-Toxicity Score (0-9) (V1): 5.7
  Vigour Score (0-9) (V1): 5.9
NAVY BEAN cv Mogex [1]; VC
  Nodules Per Plant (VC): 23.8
NAVY BEAN cv Mogex [1]; VC, score 0-9
  Nod Score (0-9) (VC): 3.8
NAVY BEAN cv Mogex [2]; [6]
  Nodules Per Plant (V1): 33.5
NAVY BEAN cv Mogex [2]; V1, score 0-9
  Nodulation Score (0-9) (V1): 5.2
  Phyto-Toxicity Score (0-9) (V1): 7.3
  Vigour Score (0-9) (V1): 7.2
NAVY BEAN cv Mogex [2]; VC
  Nodules Per Plant (VC): 31.8
NAVY BEAN cv Mogex [2]; VC, score 0-9
  Nod Score (0-9) (VC): 5.0
PEA cv Ragtime [3]; compost of low pH (5.0-5.5), V1, +28 days after spraying, no inoculum
  Nodules Per Plant (V1): 16.4
PEA cv Ragtime [3]; [7]
  Nodulation Score (0-9) (V1): 5.0
  Phyto-Toxicity Score (0-9) (V1): 5.1
  Vigour Score (0-9) (V1): 5.8
PEA cv Ragtime [3]; compost of low pH (5.0-5.5), VC
  Nodules Per Plant (VC): 18.1
PEA cv Ragtime [3]; compost of low pH (5.0-5.5), VC, score 0-9
  Nod Score (0-9) (VC): 5.3
PEA cv Ragtime [3]; low pH compost, application at V1 (data from Example 7.5)
  Nodules Per Plant (V1): 16.4
PEA cv Ragtime [3]; [8]
  Nodulation Score (0-9) (V1): 5.0
  Phyto-Toxicity Score (0-9) (V1): 5.1
  Rooting Score (0-9) (V1): 4.2
PEA cv Ragtime [4]; V1, no inoculum
  Nodules Per Plant (V1): 16.9
PEA cv Ragtime [4]; V1, score 0-9
  Nodulation Score (0-9) (V1): 5.1
  Phyto-Toxicity Score (0-9) (V1): 6.9
  Vigour Score (0-9) (V1): 6.8
PEA cv Ragtime [4]; VC
  Nodules Per Plant (VC): 17.4
PEA cv Ragtime [4]; VC, score 0-9
  Nod Score (0-9) (VC): 5.2

## Nc1ccccc1C(=O)O [2. AN (Anthranilic Acid)]
Oilseed rape; score 0-9, 0 = Dead, 14 days
  Phytotoxicity (0-9) (0 = Dead) + 14 Days: 8.0
  Vigour (0-9) (0 = Dead) + 14 days: 8.0
Oilseed rape; score 0-9, 0 = Dead, 28 days
  Phytotoxicity (0-9) (0 = Dead) + 28 Days: 8.0
  Vigour (0-9) (0 = Dead) + 28 Days: 8.0
Oilseed rape; score 0-9, 9 = Best Rooting, 28 days
  Rooting (0-9) (9 = Best Rooting) + 28 Days: 8.0
